# Experimental data published in patent US20030068615A1, “Polypeptides that bind HIV gp120 and related nucleic acids, antibodies, compositions, and methods of use” (priority 1999, published 2003).
# Where two headings read alike, the source gives them in different places.
# Molecular target: HIV-1LAI envelope gp120 (Human immunodeficiency virus type 1 group M subtype B, UniProt P03377)
# Assay type: binding
# Details: for number of radioactive decays (counts) counted: human CD4 21-mer scan, empty control 2075; for Counts per 20′ Average-background: CCR5 18-mer scan, radiolabeled HIV-1LAI gp120
# [1] = Panel D, 9-mers and 12-mers of CD4, empty control […]
# [2] = Panel B, 15-mers and 18-mers of CD4, empty control 575
# [3] = CXCR4 18-mer scan, background subtracted, empty control 0
# [4] = CXCR4 18-mer scan, empty control 412
# [5] = STRL33 18-mer scan, background subtracted, first of two count columns
# [6] = STRL33 18-mer scan, background subtracted, second of two count columns
# [7] = Panel E, 9-mers and 12-mers of CD4, empty control 571
# [8] = Panel C, 15-mers and 18-mers of CD4, empty control 556
# [9] = Panel A, 21-mers of CD4, empty control 515 and 617
sequence,measurement,setting,value
HLLQGQSLT,COUNTS of radiolabeled gp120 retained,[1],564 counts
HLLQGQSLTLTL,COUNTS of radiolabeled gp120 retained,[1],701 counts
HLLQGQSLTLTLESP,COUNTS of radiolabeled gp120 retained,[2],1277 counts
HLTLPQALPQYAGSGNLTLAL [human CD4 281-301],number of radioactive decays (counts) counted,,2394 counts
HQAFLQFSK,"Binding Results For Window Length (counts bound-background), 9","STRL33 amino terminus, 9-mer starting at the first residue of the printed sequence, background subtracted",2761 counts
HSSVSTESESSSFHSS,radioactive counts recorded in twenty minutes,[3],103 counts
same,radioactive counts recorded in twenty minutes,[4],515 counts
HVIYTVNLYSSVLILAFI [CXCR4 segment 113-130],radioactive counts recorded in twenty minutes,[3],118 counts
same,radioactive counts recorded in twenty minutes,[4],530 counts
HWEYYAMTSFHYTIMVTE [STRL33 segment 257-274],radioactive counts recorded in twenty minutes,[5],2040.5 counts
same,radioactive counts recorded in twenty minutes,[6],3065.5 counts
ICDRFYPNDLWVVVFQFQ [CXCR4 segment 185-202],radioactive counts recorded in twenty minutes,[3],306 counts
same,radioactive counts recorded in twenty minutes,[4],718 counts
ICEVEDQKE,COUNTS of radiolabeled gp120 retained,[1],596 counts
ICEVEDQKEEVQ,COUNTS of radiolabeled gp120 retained,[1],585 counts
ICEVEDQKEEVQLLV,COUNTS of radiolabeled gp120 retained,[2],1084 counts
ICEVEDQKEEVQLLVFGL,COUNTS of radiolabeled gp120 retained,[2],3898 counts
IDIVVLAFQ,COUNTS of radiolabeled gp120 retained,[7],691 counts
IDIVVLAFQKAS,COUNTS of radiolabeled gp120 retained,[7],630 counts
IDIVVLAFQKASSIV,COUNTS of radiolabeled gp120 retained,[8],865 counts
IDIVVLAFQKASSIVYKK,COUNTS of radiolabeled gp120 retained,[8],711 counts
IDIVVLAFQKASSIVYKKEGE,COUNTS of radiolabeled gp120 retained,[9],962 counts
IDSFILLEIIKQGCEFEN [CXCR4 segment 261-278],radioactive counts recorded in twenty minutes,[3],3472 counts
same,radioactive counts recorded in twenty minutes,[4],3884 counts
IEDSDTYIC,COUNTS of radiolabeled gp120 retained,[1],567 counts
IEDSDTYICEVE,COUNTS of radiolabeled gp120 retained,[1],1107 counts
IEDSDTYICEVEDQK,COUNTS of radiolabeled gp120 retained,[2],1143 counts
IEDSDTYICEVEDQKEEV,COUNTS of radiolabeled gp120 retained,[2],1230 counts
IFANVSEADDRYICDRFY,radioactive counts recorded in twenty minutes,[3],267 counts
same,radioactive counts recorded in twenty minutes,[4],679 counts
IFFCVRCRHRRRQAERMSQIK,number of radioactive decays (counts) counted,,2085 counts
IFLVMAVFLLTQMPFNLM [STRL33 segment 233-250],radioactive counts recorded in twenty minutes,[5],386.5 counts
same,radioactive counts recorded in twenty minutes,[6],772.5 counts
IFTIMIVYFLFWAPYNIV [CCR5 segment 237-],Counts per 20′ Average-background,background subtracted,121 counts per 20′
IFTRSQKEGLHYTCSSHF,Counts per 20′ Average-background,background subtracted,98 counts per 20′
IFYHKLQSLTDVFLVNLP [STRL33 segment 57-74],radioactive counts recorded in twenty minutes,[5],1275.5 counts
same,radioactive counts recorded in twenty minutes,[6],1256.5 counts
IGISIDSFILLEIIKQGC [CXCR4 segment 257-274],radioactive counts recorded in twenty minutes,[3],734 counts
same,radioactive counts recorded in twenty minutes,[4],1146 counts
IIISKLSHSKGHQKRKAL,radioactive counts recorded in twenty minutes,[3],157 counts
same,radioactive counts recorded in twenty minutes,[4],569 counts
IIKNLKIED,COUNTS of radiolabeled gp120 retained,[1],658 counts
IIKNLKIEDSDT,COUNTS of radiolabeled gp120 retained,[1],511 counts
IIKNLKIEDSDTYIC,COUNTS of radiolabeled gp120 retained,[2],664 counts
IIKNLKIEDSDTYICEVE,COUNTS of radiolabeled gp120 retained,[2],751 counts
IIKQGCEFENTVEKWISI [CXCR4 segment 269-286],radioactive counts recorded in twenty minutes,[3],106 counts
same,radioactive counts recorded in twenty minutes,[4],518 counts
IKNLKIEDS,COUNTS of radiolabeled gp120 retained,[1],557 counts
IKNLKIEDSDTY,COUNTS of radiolabeled gp120 retained,[1],574 counts
IKNLKIEDSDTYICE,COUNTS of radiolabeled gp120 retained,[2],568 counts
IKNLKIEDSDTYICEVED,COUNTS of radiolabeled gp120 retained,[2],699 counts
ILAFFACWLPYYIGISID [CXCR4 segment 245-262],radioactive counts recorded in twenty minutes,[3],184 counts
same,radioactive counts recorded in twenty minutes,[4],596 counts
ILKTLLRCRNEKKRHRAV,Counts per 20′ Average-background,background subtracted,19 counts per 20′
ILLEIIKQGCEFENTVHK [CXCR4 segment 265-282],radioactive counts recorded in twenty minutes,[3],117 counts
same,radioactive counts recorded in twenty minutes,[4],529 counts
ILPGIVILSCYCIIISKL [CXCR4 segment 209-226],radioactive counts recorded in twenty minutes,[3],192 counts
same,radioactive counts recorded in twenty minutes,[4],604 counts
IPDFIFANVSEADDRYIC,radioactive counts recorded in twenty minutes,[3],438 counts
same,radioactive counts recorded in twenty minutes,[4],850 counts
IRSTHWEYYAMTSFHYTI,radioactive counts recorded in twenty minutes,[5],1571.5 counts
same,radioactive counts recorded in twenty minutes,[6],1807.5 counts
ITLPFWAVDAVANWYFGN [CXCR4 segment 89-106],radioactive counts recorded in twenty minutes,[3],130 counts
same,radioactive counts recorded in twenty minutes,[4],542 counts
IVGNGLVILVMGYQKKLR [CXCR4 segment 53-70],radioactive counts recorded in twenty minutes,[3],238 counts
same,radioactive counts recorded in twenty minutes,[4],650 counts
IVILSCYCIIISKLSHSK,radioactive counts recorded in twenty minutes,[3],277 counts
same,radioactive counts recorded in twenty minutes,[4],689 counts
IVLLLNTFQEFFGLNNCS,Counts per 20′ Average-background,background subtracted,2134 counts per 20′
IVVLAFQKA,COUNTS of radiolabeled gp120 retained,[7],602 counts
IVVLAFQKASSI,COUNTS of radiolabeled gp120 retained,[7],548 counts
IVVLAFQKASSIVYK,COUNTS of radiolabeled gp120 retained,[8],783 counts
IVVLAFQKASSIVYKKEG,COUNTS of radiolabeled gp120 retained,[8],531 counts
IVVLAFQKASSIVYKKEGEQV,COUNTS of radiolabeled gp120 retained,[9],646 counts
IVVVKATKAYNQQAKRMT,radioactive counts recorded in twenty minutes,[5],166.5 counts
same,radioactive counts recorded in twenty minutes,[6],43.5 counts
IVYKKEGEQ,COUNTS of radiolabeled gp120 retained,[7],534 counts
IVYKKEGEQVEF,COUNTS of radiolabeled gp120 retained,[7],533 counts
IVYKKEGEQVEFSFP,COUNTS of radiolabeled gp120 retained,[8],615 counts
IVYKKEGEQVEFSFPLAF,COUNTS of radiolabeled gp120 retained,[8],5382 counts
IVYKKEGEQVEFSFPLAFTVE,COUNTS of radiolabeled gp120 retained,[9],15620 counts
IYDINYYTSEPCQKINVK [CCR5 segment 9-26],Counts per 20′ Average-background,background subtracted,228 counts per 20′
KASSIVYKK,COUNTS of radiolabeled gp120 retained,[7],498 counts
KASSIVYKKEGE,COUNTS of radiolabeled gp120 retained,[7],559 counts
KASSIVYKKEGEQVE,COUNTS of radiolabeled gp120 retained,[8],563 counts
KASSIVYKKEGEQVEFSF,COUNTS of radiolabeled gp120 retained,[8],536 counts
KASSIVYKKEGEQVEFSFPLA [human CD4 206-226],COUNTS of radiolabeled gp120 retained,[9],30873 counts
same,number of radioactive decays (counts) counted,,14347 counts
KATKAYNQQAKRMTWGKV,radioactive counts recorded in twenty minutes,[5],701.5 counts
same,radioactive counts recorded in twenty minutes,[6],568.5 counts
KAVWVLNPEAGMWQCLLSDSG [human CD4 356-376],number of radioactive decays (counts) counted,,3133 counts
KEEVQLLVF,COUNTS of radiolabeled gp120 retained,[1],1273 counts
KEEVQLLVFGLT,COUNTS of radiolabeled gp120 retained,[1],1774 counts
KEEVQLLVFGLTANS,COUNTS of radiolabeled gp120 retained,[2],3485 counts
KEEVQLLVFGLTANSDTH,COUNTS of radiolabeled gp120 retained,[2],1271 counts
KEGEQVEFS,COUNTS of radiolabeled gp120 retained,[7],595 counts
KEGEQVEFSFPL,COUNTS of radiolabeled gp120 retained,[7],710 counts
KEGEQVEFSFPLAFT,COUNTS of radiolabeled gp120 retained,[8],3253 counts
KEGEQVEFSFPLAFTVEK,COUNTS of radiolabeled gp120 retained,[8],3117 counts
KEGEQVEFSFPLAFTVEKLTG,COUNTS of radiolabeled gp120 retained,[9],972 counts
KEPCFREENANFNKIFLP [CXCR4 segment 25-42],radioactive counts recorded in twenty minutes,[3],252 counts
same,radioactive counts recorded in twenty minutes,[4],664 counts
KIDIVVLAF,COUNTS of radiolabeled gp120 retained,[7],665 counts
KIDIVVLAFQKA,COUNTS of radiolabeled gp120 retained,[7],689 counts
KIDIVVLAFQKASSI,COUNTS of radiolabeled gp120 retained,[8],956 counts
KIDIVVLAFQKASSIVYK,COUNTS of radiolabeled gp120 retained,[8],779 counts
KIDIVVLAFQKASSIVYKKEG,COUNTS of radiolabeled gp120 retained,[9],1394 counts
same,number of radioactive decays (counts) counted,,3681 counts
KIEDSDTYI,COUNTS of radiolabeled gp120 retained,[1],603 counts
KIEDSDTYICEV,COUNTS of radiolabeled gp120 retained,[1],601 counts
KIEDSDTYICEVEDQ,COUNTS of radiolabeled gp120 retained,[2],1088 counts
KIEDSDTYICEVEDQKEE,COUNTS of radiolabeled gp120 retained,[2],858 counts
KIVILGLVLPLLVMVICY,Counts per 20′ Average-background,background subtracted,65 counts per 20′
